Columns and labels:
[1] = target: human Farnesoid X receptor ligand-binding domain/Gal4 DNA binding domain chimera (Homo sapiens (Human), UniProt Q96RI1); test: Cell-based FXR beta-lactamase reporter assay (FXR-UAS-bla HEK 293T cells); conditions: for Emax: HEK-293T, read-out: % Efficacy; for EC50 / FXR pEC50: -log EC50; for EC50: read-out: FXR pEC50 (converted)
Protocol: FXR activation was measured using a cell line and procedure obtained from Life Technologies (Cat #K1691). FXR-UAS-bla HEK 293T cells contain a human Farnesoid X receptor ligand-binding domain/Gal4 DNA binding domain chimera stably integrated into the CellSensor® UAS-bla HEK 293T cell line. The CellSensor® UAS-bla HEK 293T contains a beta-lactamase reporter gene under control of a UAS response element stably integrated into HEK 293T cells. Activation of FXR by bound ligands results in transcriptional activation of the beta-lactamase reporter gene, which is detected via assay of beta-lactamase activity. Cells are harvested and diluted into assay medium containing phenol red-free DMEM supplemented with 2% Charcoal-stripped FBS, pyruvate, non-essential amino acids. Cells are then transferred to a 384 well assay plate. Test compounds are dissolved in DMSO and a 3-fold serial dilution series is generated, then further diluted into assay medium. […] A FRET-based […] is loaded into cells as its acetomethoxy ester. Intracellular esterases liberate free CCF4, a cephalosporin core linking 7-hydroxycoumarin to fluorescein. In the presence of beta-lactamase activity produced in the presence of FXR agonists, cleavage of CCF4 spatially separates the two dyes and disrupts FRET, so that exciting the coumarin at 409 nm now produces a blue fluorescence signal at 447 nm. The change in FRET signal is plotted against the test compound concentration and fit to a 3-parameter logistical equation.

[2] = target: ligand binding domain of human FXR (Homo sapiens (Human), UniProt Q96RI1); test: FXR ligand binding assay (LanthaScreen FRET); conditions: for Emax: read-out: % Efficacy;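 as to all read-outs here: TR-FRET coactivator recruitment: ligand-induced binding of fluorescein-labelled SRC2-2 peptide to GST-tagged FXR LBD detected via Tb anti-GST antibody, serial compound dilutions, 3-parameter logistic fit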
Chain of ligand binding domain of human FXR (Q96RI1 262-486): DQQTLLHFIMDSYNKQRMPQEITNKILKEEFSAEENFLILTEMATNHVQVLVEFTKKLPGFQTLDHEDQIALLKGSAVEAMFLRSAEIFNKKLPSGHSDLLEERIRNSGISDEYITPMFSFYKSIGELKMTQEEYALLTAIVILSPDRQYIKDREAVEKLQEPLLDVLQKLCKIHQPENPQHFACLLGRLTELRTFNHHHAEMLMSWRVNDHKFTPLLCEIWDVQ

[3] = cellular FXR beta-lactamase reporter assay
[4] = FXR ligand binding assay, -log EC50

Chain of human Farnesoid X receptor ligand-binding domain/Gal4 DNA binding domain chimera (Q96RI1 262-486, stated change not applied): as the sequence (Q96RI1 262-486) above

With `O=C(OCCN(CCO)CCO)c1cc(F)c2nc(N3[C@@H]4CC[C@H]3C[C@@H](OC(=O)c3c(-c5c(Cl)cccc5Cl)noc3C3CC3)C4)sc2c1` [Compound I-63, 2-[bis(2-hydroxyethyl)amino]ethyl 2-[(1R,3R,5S)-3-[5-cyclopropyl-3-(2,6-dichlorophenyl)-1,2-oxazole-4-carbonyloxy]-8-azabicyclo[3.2.1]octan-8-yl]-4-fluoro-1,3-benzothiazole-6-carboxylate] the Emax [1] was 112%, the EC50 [1, 3] was 10000 nM and the “FXR pEC50” value [2, 4] was greater than 6.5.
In the case of `CC1(c2onc(-c3c(Cl)cccc3Cl)c2C(=O)OC2C[C@H]3CC[C@@H](C2)N3c2nc3c(F)cc(C(=O)O)cc3s2)CC1` (single isomer, unassigned) [Compound I-26], the “FXR pEC50” value [1, 3] is reported as 7.5 and the “FXR pEC50” value [2, 4] is reported as 7.4.
With `CCCS(=O)(=O)NC(=O)c1ccc(N2[C@@H]3CC[C@H]2C[C@@H](OC(=O)c2c(-c4c(Cl)cccc4Cl)noc2C2CC2)C3)cc1` [Compound I-45, (1R,3R,5S)-8-{4-[(propane-1-sulfonyl)carbamoyl]phenyl}-8-azabicyclo[3.2.1]octan-3-yl 5-cyclopropyl-3-(2,6-dichlorophenyl)-1,2-oxazole-4-carboxylate] the “FXR pEC50” value [1, 3] was 8.6, the “FXR pEC50” value [2, 4] was 8.3 and the “% Efficacy” value ([2]; FXR ligand binding assay, extent of activation relative to GW4064) was 130%.
`O=C(O)c1ccc(N2[C@@H]3CC[C@H]2C[C@@H](OC(=O)c2c(-c4c(Cl)cccc4Cl)noc2C2CC2)C3)cc1` [Compound I-34, 4-[(1R,3R,5S)-3-[5-Cyclopropyl-3-(2,6-dichlorophenyl)-1,2-oxazole-4-carbonyloxy]-8-azabicyclo[3.2.1]octan-8-yl]benzoic Acid] showed an Emax [1] of 107%, an EC50 [1, 3] of 20 nM and an Emax [2] of 79%.
With `COc1cc(N2[C@@H]3CC[C@H]2C[C@@H](OC(=O)c2c(-c4c(Cl)cccc4Cl)noc2C2CC2)C3)ccc1C(=O)O` [Compound I-39, 4-[(1R,3R,5S)-3-[5-cyclopropyl-3-(2,6-dichlorophenyl)-1,2-oxazole-4-carbonyloxy]-8-azabicyclo[3.2.1]octan-8-yl]-2-methoxybenzoic acid] the Emax [1] was 114%, the EC50 [1, 3] was 100 nM and the “FXR pEC50” value [2, 4] was 6.8. It also gave an Emax [2] of 64%.
`CS(=O)(=O)NC(=O)c1ccc(N2[C@@H]3CC[C@H]2C[C@@H](OC(=O)c2c(-c4c(Cl)cccc4Cl)noc2C2CC2)C3)c(F)c1` [Compound I-51, (1R,3R,5S)-8-[2-fluoro-4-(methanesulfonylcarbamoyl)phenyl]-8-azabicyclo[3.2.1]octan-3-yl 5-cyclopropyl-3-(2,6-dichlorophenyl)-1,2-oxazole-4-carboxylate] showed an Emax [1] of 105%, an EC50 [1, 3] of 5.01 nM and an Emax [2] of 139%.
In the case of `O=C(O)c1cc(F)cc(S(=O)(=O)N2[C@@H]3CC[C@H]2C[C@@H](OC(=O)c2c(-c4c(Cl)cccc4Cl)noc2C2CC2)C3)c1` [Compound I-56, 3-{[(1R,3R,5S)-3-[5-cyclopropyl-3-(2,6-dichlorophenyl)-1,2-oxazole-4-carbonyloxy]-8-azabicyclo[3.2.1]octan-8-yl]sulfonyl}-5-fluorobenzoic Acid], the Emax [1] is reported as 78%, the EC50 [1, 3] is reported as 631 nM and the Emax [2] is reported as 56%.
With `O=C(O[C@H]1C[C@H]2CC[C@@H](C1)N2c1ccc2c(C(=O)O)noc2c1)c1c(-c2c(Cl)cccc2Cl)noc1C1CC1` [Compound I-29, 6-[(1R,3R,5S)-3-[5-cyclopropyl-3-(2,6-dichlorophenyl)-1,2-oxazole-4-carbonyloxy]-8-azabicyclo[3.2.1]octan-8-yl]-1,2-benzoxazole-3-carboxylic Acid] the Emax [1] was 124%, the EC50 [1, 3] was 251 nM and the EC50 ([2]; FXR ligand binding assay, -log EC50, read-out: FXR pEC50 (converted)) was 316 nM. The Emax [2] was 98%.
For `O=C(O)c1cc(F)c2nc(N3[C@@H]4CC[C@H]3C[C@@H](OC(=O)c3c(C56CCC(CC5)CC6)noc3C3CC3)C4)sc2c1` [Compound I-20, 2-[(1R,3R,5S)-3-(3-{Bicyclo[2.2.2]octan-1-yl}-5-cyclopropyl-1,2-oxazole-4-carbonyloxy)-8-azabicyclo[3.2.1]octan-8-yl]-4-fluoro-1,3-benzothiazole-6-carboxylic Acid], the “FXR pEC50” value [1, 3] was 6.6, the “% Efficacy” value ([1]; cellular FXR beta-lactamase reporter assay, extent of activation relative to GW4064) was 22% and the “FXR pEC50” value [2, 4] was greater than 4.5.
Work on `Cc1cc(C(=O)O)cc2sc(N3[C@@H]4CC[C@H]3C[C@@H](OC(=O)c3c(-c5c(Cl)cccc5Cl)noc3C3CC3)C4)nc12` [Compound I-11, 2-[(1R,3R,5S)-3-[5-Cyclopropyl-3-(2,6-dichlorophenyl)-1,2-oxazole-4-carbonyloxy]-8-azabicyclo[3.2.1]octan-8-yl]-4-methyl-1,3-benzothiazole-6-carboxylic Acid] yielded an Emax [1] of 121%, an EC50 [1, 3] of 2.51 nM and an Emax [2] of 110%.
For `O=C(OCC(=O)N(CCO)CCO)c1cc(F)c2nc(N3[C@@H]4CC[C@H]3C[C@@H](OC(=O)c3c(-c5c(Cl)cccc5Cl)noc3C3CC3)C4)sc2c1` [Compound I-64, [bis(2-hydroxyethyl)carbamoyl]methyl 2-[(1R,3R,5S)-3-[5-cyclopropyl-3-(2,6-dichlorophenyl)-1,2-oxazole-4-carbonyloxy]-8-azabicyclo[3.2.1]octan-8-yl]-4-fluoro-1,3-benzothiazole-6-carboxylate], the EC50 [1, 3] was less than 31.6 nM, the “FXR pEC50” value [2, 4] was 6.6 and the Emax [2] was 32%.
For `O=C(O)c1cc(F)cc(N2[C@@H]3CC[C@H]2C[C@@H](OC(=O)c2c(-c4c(Cl)cccc4Cl)noc2C2CC2)C3)c1` [Compound I-42, 3-[(1R,3R,5S)-3-[5-cyclopropyl-3-(2,6-dichlorophenyl)-1,2-oxazole-4-carbonyloxy]-8-azabicyclo[3.2.1]octan-8-yl]-5-fluorobenzoic acid], the Emax [1] was 85%, the EC50 [1, 3] was 79.4 nM and the “FXR pEC50” value [2, 4] was 8. The Emax [2] was 38%.
In the case of `O=C(O)c1ccc(N2[C@@H]3CC[C@H]2C[C@@H](OC(=O)c2c(-c4c(Cl)cccc4Cl)noc2C2CC2)C3)cc1C(F)(F)F` [Compound I-37, 4-[(1R,3R,5S)-3-[5-cyclopropyl-3-(2,6-dichlorophenyl)-1,2-oxazole-4-carbonyloxy]-8-azabicyclo[3.2.1]octan-8-yl]-2-(trifluoromethyl)benzoic acid], the Emax [1] is reported as 93%, the EC50 [1, 3] is reported as 100 nM and the “FXR pEC50” value [2, 4] is reported as 7.7. For the same compound, the Emax [2] was 50%.
In the case of `O=C(O)c1ccc(N2[C@@H]3CC[C@H]2C[C@@H](OC(=O)c2c(-c4c(Cl)cccc4Cl)noc2C2CC2)C3)c(F)c1` [Compound I-35, 4-[(1R,3R,5S)-3-[5-Cyclopropyl-3-(2,6-dichlorophenyl)-1,2-oxazole-4-carbonyloxy]-8-azabicyclo[3.2.1]octan-8-yl]-3-fluorobenzoic Acid], the Emax [1] is reported as 116%, the EC50 [1, 3] is reported as 31.6 nM and the Emax [2] is reported as 92%.
With `CCc1cc(C(=O)O)cc2sc(N3[C@@H]4CC[C@H]3C[C@@H](OC(=O)c3c(-c5c(Cl)cccc5Cl)noc3C3CC3)C4)nc12` [Compound I-60, 2-[(1R,3R,5S)-3-[5-cyclopropyl-3-(2,6-dichlorophenyl)-1,2-oxazole-4-carbonyloxy]-8-azabicyclo[3.2.1]octan-8-yl]-4-ethyl-1,3-benzothiazole-6-carboxylic Acid] the Emax [1] was 104%, the EC50 [1, 3] was 6.31 nM and the “FXR pEC50” value [2, 4] was 7. For the same compound, the Emax [2] was 119%.
`Cc1cc(C(=O)O)cc2sc(N3[C@@H]4CC[C@H]3C[C@@H](OC(=O)c3c(-c5c(Cl)cccc5Cl)noc3C3(F)CC3)C4)nc12` [Compound I-59, 2-[(1R,3R,5S)-3-[3-(2,6-dichlorophenyl)-5-(1-fluorocyclopropyl)-1,2-oxazole-4-carbonyloxy]-8-azabicyclo[3.2.1]octan-8-yl]-4-methyl-1,3-benzothiazole-6-carboxylic Acid] showed an Emax [1] of 105%, an EC50 [1, 3] of 39.8 nM and an Emax [2] of 95%.
In the case of `O=C(O)c1cc(C(F)(F)F)c2nc(N3[C@@H]4CC[C@H]3C[C@@H](OC(=O)c3c(-c5c(Cl)cccc5Cl)noc3C3CC3)C4)sc2c1` [Compound I-10, 2-[(1R,3R,5S)-3-[5-cyclopropyl-3-(2,6-dichlorophenyl)-1,2-oxazole-4-carbonyloxy]-8-azabicyclo[3.2.1]octan-8-yl]-4-(trifluoromethyl)-1,3-benzothiazole-6-carboxylic Acid], the Emax [1] is reported as 104%, the EC50 [1, 3] is reported as 25.1 nM and the Emax [2] is reported as 102%.
`CS(=O)(=O)NC(=O)c1ccc(N2[C@@H]3CC[C@H]2C[C@@H](OC(=O)c2c(-c4c(Cl)cccc4Cl)noc2C2CC2)C3)cc1` [Compound I-44, (1R,3R,5S)-8-[4-(methanesulfonylcarbamoyl)phenyl]-8-azabicyclo[3.2.1]octan-3-yl 5-cyclopropyl-3-(2,6-dichlorophenyl)-1,2-oxazole-4-carboxylate] was tested, and the Emax [1] was 117%, the EC50 [1, 3] was 6.31 nM and the Emax [2] was 124%.
In the case of `CCCS(=O)(=O)NC(=O)c1cc(F)c2nc(N3[C@@H]4CC[C@H]3C[C@@H](OC(=O)c3c(-c5c(Cl)cccc5Cl)noc3C3(F)CC3)C4)sc2c1` [Compound I-62, (1R,3R,5S)-8-{4-fluoro-6-[(propane-1-sulfonyl)carbamoyl]-1,3-benzothiazol-2-yl}-8-azabicyclo[3.2.1]octan-3-yl 3-(2,6-dichlorophenyl)-5-(1-fluorocyclopropyl)-1,2-oxazole-4-carboxylate], the Emax [1] is reported as 107%, the EC50 [1, 3] is reported as 20 nM and the “FXR pEC50” value [2, 4] is reported as 7.4. It also gave an Emax [2] of 145%.

Reference: patent publication US11091482B2, “Isoxazolyl-carbonyloxy azabicyclo[3.2.1]octanyl compounds as FXR activators” (ARDELYX, INC., priority 2016, dated 2021)
